Measured values from ChEMBL document CHEMBL1149209, “Synthesis and structure-activity relationship of 2-(aminoalkyl)-3,3a,8,12b-tetrahydro-2H-dibenzocyclohepta[1,2-b]furan derivatives: a novel series of 5-HT(2A/2C) receptor antagonists” (Bioorg Med Chem Lett, 2004).
pKi: −log10 of the molar value.

Experiments:
[1] = biological target: Histamine H1 receptor (Homo sapiens, UniProt P35367); test: Ability to displace [3H]pyrilamine from human cloned histamine H1 receptor expressed in CHO cells; format: cell-based
[2] = biological target: T1, 5-hydroxytryptamine receptor 2C (Homo sapiens, UniProt P28335); test: Ability to displace [3H]- mesulergine from human cloned 5-hydroxytryptamine 2C receptor expressed in CHO cells; format: cell-based
T1 sequence (P28335 whole entry): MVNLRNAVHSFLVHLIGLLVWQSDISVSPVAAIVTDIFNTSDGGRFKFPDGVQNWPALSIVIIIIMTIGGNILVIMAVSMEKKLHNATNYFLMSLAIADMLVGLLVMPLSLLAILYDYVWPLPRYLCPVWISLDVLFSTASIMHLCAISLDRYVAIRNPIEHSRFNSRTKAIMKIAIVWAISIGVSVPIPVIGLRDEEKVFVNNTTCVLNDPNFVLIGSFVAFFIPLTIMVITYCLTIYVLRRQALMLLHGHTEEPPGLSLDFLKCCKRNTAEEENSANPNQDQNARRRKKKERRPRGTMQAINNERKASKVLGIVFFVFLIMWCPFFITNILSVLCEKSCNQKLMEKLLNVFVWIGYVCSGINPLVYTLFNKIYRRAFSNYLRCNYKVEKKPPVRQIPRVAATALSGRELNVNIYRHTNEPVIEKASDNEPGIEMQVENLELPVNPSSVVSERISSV

[3] = biological target: 5-hydroxytryptamine receptor 2A (Homo sapiens, UniProt P28223); test: Ability to displace [125I]R91150 from human cloned 5-hydroxytryptamine 2A receptor expressed in L929 cells; format: cell-based
[4] = system: Rattus norvegicus; test: Effective dose required for antagonistic activity in mCPP challenge test in male wistar rats after subcutaneous administration; format: functional; conditions: sc

Chain of Histamine H1 receptor (P35367 whole entry): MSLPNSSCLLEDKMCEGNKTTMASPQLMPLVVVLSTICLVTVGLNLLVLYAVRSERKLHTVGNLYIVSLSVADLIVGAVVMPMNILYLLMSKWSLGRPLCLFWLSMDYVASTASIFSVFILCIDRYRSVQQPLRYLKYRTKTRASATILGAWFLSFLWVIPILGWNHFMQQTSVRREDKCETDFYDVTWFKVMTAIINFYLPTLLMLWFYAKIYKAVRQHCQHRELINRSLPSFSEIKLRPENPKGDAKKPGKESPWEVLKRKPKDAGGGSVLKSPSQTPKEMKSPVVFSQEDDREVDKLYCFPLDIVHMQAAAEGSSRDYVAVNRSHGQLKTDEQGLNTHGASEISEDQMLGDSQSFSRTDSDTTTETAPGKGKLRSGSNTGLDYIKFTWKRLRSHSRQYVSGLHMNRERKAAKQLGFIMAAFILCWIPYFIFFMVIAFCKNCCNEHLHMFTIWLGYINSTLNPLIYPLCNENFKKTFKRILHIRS
Chain of 5-hydroxytryptamine receptor 2A (P28223 whole entry): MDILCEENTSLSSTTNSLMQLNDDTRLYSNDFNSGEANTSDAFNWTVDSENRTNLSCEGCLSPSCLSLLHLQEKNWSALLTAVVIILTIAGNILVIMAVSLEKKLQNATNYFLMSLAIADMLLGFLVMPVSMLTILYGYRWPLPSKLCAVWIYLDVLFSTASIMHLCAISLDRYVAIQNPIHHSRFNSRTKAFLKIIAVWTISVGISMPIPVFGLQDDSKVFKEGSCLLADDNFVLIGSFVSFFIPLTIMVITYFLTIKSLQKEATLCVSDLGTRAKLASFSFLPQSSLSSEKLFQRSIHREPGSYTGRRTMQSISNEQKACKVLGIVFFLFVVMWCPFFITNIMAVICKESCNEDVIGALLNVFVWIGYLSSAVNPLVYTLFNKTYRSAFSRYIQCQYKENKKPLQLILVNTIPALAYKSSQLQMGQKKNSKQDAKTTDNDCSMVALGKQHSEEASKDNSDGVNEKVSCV

Question: How did the pKi [1] turn out when CN1CCN(CC2C[C@@H]3c4ccccc4Sc4ccccc4[C@H]3O2)CC1 (stereo partly specified) was run?
Answer: 8.92

Question: What about the pKi [2] of the same compound?
Answer: 6.92

Question: What about the pKi [3] of the same compound?
Answer: 7.76

Question: Which results are given for CNC[C@@H]1CC2c3ccccc3Cc3ccccc3C2O1 (single isomer, unassigned)?
Answer: pKi [1]: 8.46; pKi [2]: 7.80; pKi [3]: 7.13; ED50 [4]: 2.2 mg/kg

Question: How did the pKi [1] turn out when c1ccc(C2CCN(CC3C[C@@H]4c5ccccc5Cc5ccccc5[C@H]4O3)CC2)cc1 (stereo partly specified) was run?
Answer: 7.53

Question: And the pKi [2]?
Answer: 7.37

Question: What about the pKi [3] of the same compound?
Answer: 5.96

Question: How did the pKi [1] turn out when O=C(c1ccc(F)cc1)C1CCN(CC2C[C@@H]3c4ccccc4Cc4ccccc4[C@H]3O2)CC1 (stereo partly specified) was run?
Answer: 8.72

Question: And the pKi [2]?
Answer: 7.77

Question: And the pKi [3]?
Answer: 6.36

Question: CN(C)CC1C[C@@H]2c3ccccc3Cc3ccccc3[C@H]2O1 (stereo partly specified) was tested. Which pKi [1] did it give?
Answer: 9.15

Question: What about the pKi [2] of the same compound?
Answer: 8.17

Question: What about the pKi [3] of the same compound?
Answer: 7.66

Question: c1ccc(C2CCN(CC3C[C@@H]4c5ccccc5Sc5ccccc5[C@H]4O3)CC2)cc1 (stereo partly specified) was tested. Which pKi [1] did it give?
Answer: 7.33

Question: And the pKi [2]?
Answer: 6.62

Question: What about the pKi [3] of the same compound?
Answer: 7.16

Question: With CN(C)C[C@@H]1C[C@@H]2c3ccccc3Cc3ccccc3N2O1 as the compound, how does the pKi [1] read?
Answer: 9.19

Question: And the pKi [2]?
Answer: 9.00

Question: What about the pKi [3] of the same compound?
Answer: 8.60

Question: And the ED50 [4]?
Answer: 0.04 mg/kg

Question: What does the source list for CN(C)CC1C[C@@H]2c3ccccc3COc3ccccc3[C@H]2O1 (stereo partly specified)?
Answer: pKi [1]: 7.69; pKi [2]: 6.91; pKi [3]: 5.97

Question: With CNCC1C[C@@H]2c3ccccc3Cc3ccccc3[C@H]2O1 (stereo partly specified) as the compound, how does the pKi [1] read?
Answer: 8.03

Question: And the pKi [2]?
Answer: 8.01

Question: What about the pKi [3] of the same compound?
Answer: 7.31

Question: CN(C)CC1C[C@H]2c3ccccc3Oc3ccccc3[C@H]2O1 (stereo partly specified) was tested. Which pKi [1] did it give?
Answer: 7.49

Question: What about the pKi [2] of the same compound?
Answer: 6.74

Question: What about the pKi [3] of the same compound?
Answer: 7.03

Question: How did the pKi [1] turn out when CN(C)C[C@@H]1C[C@@H]2c3ccccc3Cc3ccccc3[C@H]2O1 was run?
Answer: 9.20

Question: And the pKi [2]?
Answer: 8.49

Question: And the pKi [3]?
Answer: 7.71

Question: What about the ED50 [4] of the same compound?
Answer: 0.06 mg/kg

Question: Clc1cccc(N2CCN(CC3C[C@@H]4c5ccccc5Cc5ccccc5[C@H]4O3)CC2)c1 (stereo partly specified) was tested. Which pKi [1] did it give?
Answer: 6.33

Question: And the pKi [2]?
Answer: 6.97

Question: What about the pKi [3] of the same compound?
Answer: 7.25

Question: How did the pKi [1] turn out when c1ccc2c(c1)Cc1ccccc1[C@H]1OC(CN3CCOCC3)C[C@H]21 (stereo partly specified) was run?
Answer: 8.63

Question: And the pKi [2]?
Answer: 7.57

Question: What about the pKi [3] of the same compound?
Answer: 6.36

Question: OCCN1CCN(CC2C[C@@H]3c4ccccc4Cc4ccccc4[C@H]3O2)CC1 (stereo partly specified) was tested. Which pKi [1] did it give?
Answer: 8.43

Question: And the pKi [2]?
Answer: 6.77

Question: What about the pKi [3] of the same compound?
Answer: 7.06

Question: CN(C)C[C@H]1C[C@@H]2c3ccccc3Cc3ccccc3[C@H]2O1 was tested. Which pKi [1] did it give?
Answer: 9.27

Question: What about the pKi [2] of the same compound?
Answer: 9.03

Question: What about the pKi [3] of the same compound?
Answer: 8.60

Question: What about the ED50 [4] of the same compound?
Answer: 0.04 mg/kg

Question: CN(C)CC1C[C@H]2c3ccccc3Cc3ccccc3[C@H]2O1 (stereo partly specified) was tested. Which pKi [1] did it give?
Answer: 7.57

Question: What about the pKi [2] of the same compound?
Answer: 6.78

Question: What about the pKi [3] of the same compound?
Answer: 6.99

Question: With CN(C)CC1C[C@@H]2c3ccccc3OCc3ccccc3[C@H]2O1 (stereo partly specified) as the compound, how does the pKi [1] read?
Answer: 8.02

Question: And the pKi [2]?
Answer: 7.49

Question: What about the pKi [3] of the same compound?
Answer: 7.04

Question: CN(C)CC1C[C@@H]2c3ccccc3Sc3ccccc3[C@H]2O1 (stereo partly specified) was tested. Which pKi [1] did it give?
Answer: 8.37

Question: And the pKi [2]?
Answer: 7.61

Question: And the pKi [3]?
Answer: 7.51

Question: Which results are given for CN1CCN(CC2C[C@@H]3c4ccccc4Cc4ccccc4[C@H]3O2)CC1 (stereo partly specified)?
Answer: pKi [1]: 8.52; pKi [2]: 6.17; pKi [3]: 6.36

Question: What does the source list for CN(C)CC1C[C@@H]2c3ccccc3Oc3ccccc3[C@H]2O1 (stereo partly specified)?
Answer: pKi [1]: 7.85; pKi [2]: 7.51; pKi [3]: 7.43

Question: With CN(C)CC1C[C@@H]2c3ccccc3N(C)c3ccccc3[C@H]2O1 (stereo partly specified) as the compound, how does the pKi [1] read?
Answer: 8.22

Question: And the pKi [2]?
Answer: 7.89

Question: And the pKi [3]?
Answer: 7.09

Question: What does the source list for CN(C)C[C@@H]1C[C@H]2c3ccccc3Cc3ccccc3[C@@H]2O1?
Answer: pKi [1]: 8.43; pKi [2]: 7.55; pKi [3]: 6.98; ED50 [4]: 1.26 mg/kg
